# According to patent US20140249041A1, “Marker of Prostate Cancer” (Region Midtjylland, priority 2009, published 2014):
# How the values were obtained:
# SLC18A2 expression = SLC18A2 expression by real-time PCR in cell lines after epigenetic drug treatment; type: cell-based
# Description: RNA Preparation, cDNA Synthesis and Quantitative RT-PCR Total RNA from cultured cells and prostate tissue samples was isolated with the RNeasy MinElute Cleanup Kit (Qiagen), as described elsewhere (20). First-strand cDNA synthesis was performed with SuperScript II Reverse Transcriptase (Invitrogen) using oligo(dT) priming. SLC18A2 expression was measured with TaqMan Gene Expression Assay Hs00161858_ml and TaqMan Universal PCR Master Mix on a real-time ABI PRISM 7500 Sequence Detection System (all from Applied Biosystems). For normalization, UBC expression was measured using primers 5′-GATTTGGGTCGCGGTTCTT-3′ (SEQ ID NO: 6) plus 5′-[…]-3′ (SEQ ID NO: 7) and SYBR GREEN PCR Master Mix (Applied Biosystems). All reactions were run in triplicates.
# All cell lines were grown in RPMI 1640 with L-glutamin (Gibco, Invitrogen) supplemented with 10% fetal bovine serum, 100 U/ml penicillin and 100 μg/ml streptomycin. LNCaP, PC-3, DU145, and 22rv1 cells were obtained from ATCC, BPH-1 cells from DSMZ (Braunschweig, Germany), and PNT1A cells from ECACC. PSK-1 cells were kindly provided by Dr. Adrie van Boekhoven (University of Colorado), VCaP and DuCaP cells by Dr. Kenneth Pienta (University of Michigan), and H69 and H69A cells by Dr. Marie Stampe Ostenfeld (Danish Cancer Society, Copenhagen, Denmark). Cell lines were treated with 1 μM 5-aza-2′-deoxycytidine (Sigma) for 48 h and allowed 5 days recovery in complete medium. Four cell lines were given a combination of 1 μM 5-aza-2′-deoxycytidine (48 h treatment plus 5 days recovery) and 1 mM 4-phenylbutyric acid (Sigma) (continuously for 7 days). Mock treated cells were given buffer only. Growth media were changed daily and cells harvested on day 7. All experiments were performed in duplicate and repeated 2-3 times.
# [1] = test system: SLC18A2 promoter CpG island; experiment: Bisulfite sequencing of SLC18A2 CpG island in cell lines before and after epigenetic drug treatment; type: cell-based; details: PSK-1 cells; 1 μM 5-aza-2′-deoxycytidine; from 69% before treatment
# Description: For bisulfite sequencing, genomic DNA from prostate cell lines and carefully selected 20-μm sections of fresh-frozen Tissue-tek-embedded BPH, adenocarcinoma and adjacent non-malignant prostate tissue samples was isolated using the PUREGENE DNA Purification Kit (Gentra Systems) with proteinase K treatment (100 units, 30 min, 37 C), as previously described (29). Laser-microdissection was performed as described in (31). DNA was bisulfite converted using the MethylEasy DNA Bisulfite Modification Kit (Human Molecular Signaling, Sydney, Australia). The SLC18A2 promoter CpG island was PCR amplified with TEMPase Hot Start DNA Polymerase (Ampliqon) using primers 5′-[…]-3′ (SEQ ID NO: 8) and 5′-[…]-3′ (SEQ ID NO: 9). Gel purified (illustra GFX PCR DNA and Gel Band Purification Kit; GE Healthcare) amplicons were subcloned into the pCR4-TOPO vector (Invitrogen) and several clones sequenced using M13 forward and reverse primers. Clinicopathological data from patients undergoing methylation analysis is compiled in FIG. 4.
# All cell lines were grown in RPMI 1640 with L-glutamin (Gibco, Invitrogen) supplemented with 10% fetal bovine serum, 100 U/ml penicillin and 100 μg/ml streptomycin. LNCaP, PC-3, DU145, and 22rv1 cells were obtained from ATCC, BPH-1 cells from DSMZ (Braunschweig, Germany), and PNT1A cells from ECACC. […]
smiles,measurement,setting,value
Nc1ncn([C@H]2C[C@H](O)[C@@H](CO)O2)c(=O)n1 [5-aza-2′-deoxycytidine],induction of SLC18A2 expression,"SLC18A2 expression; H69A cells (derived adherent line), 1 μM 5-aza-2′-deoxycytidine",not observed
same,induction of SLC18A2 expression,"SLC18A2 expression; H69 cells, 1 μM 5-aza-2′-deoxycytidine 48 h plus 5 days recovery",induced SLC18A2 expression
same,induction of SLC18A2 expression,"SLC18A2 expression; PSK-1 cells, 1 μM 5-aza-2′-deoxycytidine 48 h plus 5 days recovery",induced SLC18A2 expression
same,CpG island methylation after treatment,[1],11%
